Results on 48 compounds are retold here after the Deep4Chem optical property database.

Molecules are shown by their SMILES.

The nature of the series: photoluminescence quantum yield (fraction); solvent given as SMILES.
[1] abbreviates: in c1cc(-c2cccc(-n3c4ccccc4c4ccccc43)c2)cc(-n2c3ccccc3c3ccccc32)c1.
The mark [2] stands for this setting: in c1ccc2c(c1)c1ccccc1n2-c1ccc(-c2ccc(-n3c4ccccc4c4ccccc43)cc2)cc1.

For the compound `CCC1=C(C)C(=O)n2c1cc1c(C)c(CC(=O)OC)c(C)n1c2=O`, the photoluminescence quantum yield is, setting by setting: (in CO) 0.94; (in CS(C)=O) 1; (in ClC(Cl)Cl) 1; (in c1ccccc1) 1.

`C(=C\c1c[nH]c2ccc(Oc3ccccc3)cc12)/C1=[NH+]c2cccc3cccc1c23` returned a photoluminescence quantum yield (in CO) of 0.0644.

On to `COc1ccc(N(c2ccc(OC)cc2)c2ccc3ccc4c(B(c5c(C)cc(C)cc5C)c5c(C)cc(C)cc5C)ccc5ccc2c3c54)cc1`, for which the photoluminescence quantum yield was found to be 0.19 (in C1CCOC1); 0.026 (in CC(C)=O); 1 (in CCCCCC); 0.85 (in Cc1ccccc1); 0.67 (in ClC(Cl)Cl); 0.21 (in ClCCl).

`Clc1ccccc1-c1nc2sc3ccccc3c2s1` displayed a photoluminescence quantum yield (in CS(C)=O) of 0.48.

Regarding `O=c1cc2cc(O)c3c(O)ccc4ccc(o1)c2c43`, where the note is “in CC1CCCO1”, the photoluminescence quantum yield was found to be 0.52.

`CC(C)(C)c1ccc2oc3nc4oc5ccc(-n6c7ccccc7c7cc(-n8c9ccccc9c9ccccc98)ccc76)cc5c4cc3c2c1`: the photoluminescence quantum yield (in ClC(Cl)Cl) amounted to 0.15.

Regarding `O=Cc1ccc(-c2cccc(-c3nc4ccccc4s3)c2O)o1`, the photoluminescence quantum yield reads like this: (in CCO) 0.0846; (in ClCCl) 0.111; (in O) 0.01.

As to `CC1(C)c2ccccc2N(c2ccc(-c3cc(C#N)c(C#N)cc3-c3ccc(N4c5ccccc5C(C)(C)c5ccccc54)cc3)cc2)c2ccccc21`, the photoluminescence quantum yield runs as follows: (in Cc1ccccc1) 0.59; under setting [1], 0.86.

With `c1ccc(N(c2ccccc2)c2ccc(-c3cnc(-c4ccc(N(c5ccccc5)c5ccccc5)cc4)s3)cc2)cc1`, where the note is “in CO”, the photoluminescence quantum yield worked out at 0.41.

For the compound `COC(=O)C1=C(C(=O)OC)C2(c3ccccc3-c3ccccc32)[C@@H](c2ccc(C)cc2)C=C2c3cc(OC)c(OC)cc3CCN21`, the photoluminescence quantum yield (in ClCCl) came to 0.00491.

As for `c1ccc2c(-c3cc(-c4nccs4)nc(-c4nccs4)c3)cccc2c1`, the photoluminescence quantum yield amounted to 0.33 (in CC#N), 0.411 (in CCCCCC), 0.207 (in CO) and 0.439 (in ClC(Cl)Cl).

`COc1ccccc1-c1nc(-c2ccccc2)c2ccccn12`: the photoluminescence quantum yield turned out to be 0.38 (in CC#N) and 0.385 (in ClCCl).

For the compound `CCCCN(CCCC)c1ccc(C#Cc2cc(C#Cc3ccc(C(F)(F)F)cc3)c(C#Cc3ccc(N(CCCC)CCCC)cc3)cc2C#Cc2ccc(C(F)(F)F)cc2)cc1`, the photoluminescence quantum yield (in ClCCl) was 0.5.

In turn, `c1ccc(-c2nc(-c3ccc(-c4nc(-c5ccccc5)c(-c5ccccc5)[nH]4)s3)[nH]c2-c2ccccc2)cc1` had a photoluminescence quantum yield (in CC#N) of 0.55.

Take `C(S/C=C/c1ccc(-c2ccc(/C=C/SC=C(c3ccccc3)c3ccccc3)cc2)cc1)=C(c1ccccc1)c1ccccc1`: under “in ClCCl”, the photoluminescence quantum yield came out at 0.143.

`CC/[NH+]=c1\cc2oc3cc(NCCC(=O)NCCCCC(NC(C)=O)C(=O)OC)c4ccccc4c3nc-2cc1C` (stereo unspecified): the photoluminescence quantum yield is, setting by setting: (in CCO) 0.32; (in O) 0.46.

`CCC1(CC)c2ccccc2-c2c1c1c(c3c2C(CC)(CC)c2cc(/C=C/c4cccs4)ccc2-3)C(CC)(CC)c2ccccc2-1` showed a photoluminescence quantum yield (in C1CCOC1) of 0.23.

Regarding `C1=Cc2ccc(N(c3ccccc3)c3ccccc3)cc2C2(c3cc(N(c4ccccc4)c4ccccc4)ccc31)c1ccccc1-c1ccccc12`, the photoluminescence quantum yield (in ClCCl) was 0.9.

As for `c1cc2ccc3ccc(-n4c5ccccc5c5ccccc54)c4ccc(c1)c2c34`, the photoluminescence quantum yield reads like this: (in CCCCCC) 0.26; (in CCO) 0.38; (in CCOC(C)=O) 0.29; (in ClCCl) 0.44.

Regarding `COc1ccc(-c2nc(-c3cccc(OC)c3)[nH]c2-c2ccc(OC)cc2)cc1`, under “in CO”, the photoluminescence quantum yield stood at 0.25.

Turning to `COc1ccc(/C=C/c2cc(/C=C/c3ccc(OC)cc3)nc(/C=C/c3ccc(OC)cc3)n2)cc1`, the photoluminescence quantum yield (in ClCCl) is 0.15.

Regarding `CCCCc1cc(-c2cccc(COC)c2)oc1-c1cccc(COC)c1`, the photoluminescence quantum yield (in ClC(Cl)Cl) was 0.87.

For the compound `CCCCCCC(CCCCCC)N1C(=O)c2cccc3c(-c4ccc(OC)cc4)ccc(c23)C1=O`, the photoluminescence quantum yield (in CCCCCC) was found to be 0.65; the photoluminescence quantum yield (in CCCCCCCCCCCCCC) stood at 0.79; the photoluminescence quantum yield (in CCCCCCCCCCCO) is 0.83; the photoluminescence quantum yield (in CCCCO) is 0.83; the photoluminescence quantum yield (in CN(C)C=O) is 0.82; the photoluminescence quantum yield (in Cc1ccccc1) was determined as 0.75. Moreover, under “in ClC(Cl)Cl”, the photoluminescence quantum yield was determined as 0.83.

On to `CC1=CC(C)=[N+]2C1=C(c1ccc3cccnc3n1)c1c(C)cc(C)n1[B-]2(F)F`, for which the photoluminescence quantum yield by setting is: (in CC#N) 0.04; (in CCCCCC) 0.08; (in CO) 0.16; (in ClC(Cl)Cl) 0.07; (in ClCCl) 0.06.

On to `CC(C)c1cc(C(C)C)c(B2c3cc(-n4c5ccccc5c5ccccc54)ccc3N(c3ccccc3)c3ccc(-n4c5ccccc5c5ccccc54)cc32)c(C(C)C)c1`, for which the photoluminescence quantum yield under setting [1] turned out to be 0.99.

Take `COc1c2ccccc2c(OC)c2c(C#Cc3ccccc3)c3cc4sccc4cc3c(C#Cc3ccccc3)c12`: the photoluminescence quantum yield was found to be 0.13 (in C1CCOC1), 0.1 (in Cc1ccccc1) and 0.11 (in ClCCl).

As for `CCOC(=O)CN(CC(=O)OCC)c1ccc(-c2cc(-c3ccccn3)nc(-c3ccccn3)c2)cc1`, the photoluminescence quantum yield (in CC#N) came to 0.37; the photoluminescence quantum yield (in CCOC(C)=O) came to 0.48; the photoluminescence quantum yield (in CN(C)C=O) turned out to be 0.31; the photoluminescence quantum yield (in CS(C)=O) amounted to 0.34; the photoluminescence quantum yield (in c1ccccc1) is 0.5.

With `CCCCN1C(=O)C(=C/C=C/C=C/C=C2N(CCCC)c3ccccc3N2CCCC)C(=O)N(CCCC)C1=S`, the photoluminescence quantum yield reads like this: (in CC#N) 0.099; (in CCCCCC) 0.178; (in CCO) 0.074; (in CN(C)C=O) 0.127; (in CO) 0.056; (in Cc1ccccc1) 0.73. For the same compound, the photoluminescence quantum yield stood at 0.365 (in ClC(Cl)Cl), 0.266 (in ClCCl) and 0.023 (in OCC(F)(F)F).

Consider `c1ccc(N(c2ccccc2)c2ccc(-c3ncnc4ccccc34)cc2)cc1`, for which the photoluminescence quantum yield (in ClCCl) was found to be 0.93.

Consider `c1ccc(-c2cnc3nn4ccccc4c3c2)cc1`, for which the photoluminescence quantum yield (in C1CCOC1) was found to be 0.38.

With `CC(C)(C)Nc1oc(C=Cc2ccccc2)c(C(=O)OC(C)(C)C)c1C(=O)OC(C)(C)C`, for the setting “in CC#N”, the photoluminescence quantum yield was determined as 0.311.

Turning to `Fc1c(F)c(-n2c3ccccc3c3ccccc32)c(F)c(F)c1/C=C/C(=C(c1ccccc1)c1ccccc1)c1ccccc1`, under “in Cc1ccccc1”, the photoluminescence quantum yield stood at 0.001.

On to `CC1=c2cc3c(C)c4n(c3cc2=[N+]2C1=Cc1c3ccccc3c(C)n1[B-]2(F)F)[B-](F)(F)[N+]1=C(C)c2ccccc2C1=C4`, for which the photoluminescence quantum yield (in ClC(Cl)Cl) worked out at 0.36.

As to `O=P1(c2ccccc2)c2ccc(N3c4ccccc4Oc4ccccc43)cc2-c2cc(N3c4ccccc4Oc4ccccc43)ccc21`, the photoluminescence quantum yield is, setting by setting: (in Cc1ccccc1) 0.83; under setting [2], 0.8.

Consider `N#Cc1cc(-n2c3ccccc3c3cc(Br)ccc32)c(-n2c3ccccc3c3cc(Br)ccc32)cc1C#N`, for which the photoluminescence quantum yield runs as follows: (in C1CCOC1) 0.057; under setting [2], 0.543.

On to `Oc1ccccc1-c1nc(-c2ccccc2)c2ccccn12`, for which, under “in ClCCl”, the photoluminescence quantum yield was determined as 0.144.

In turn, `S=P1(c2ccccc2)c2cccc3c4c5ccccc5c5ccccc5c4c4ccc1n4c23` (stereo unspecified) had a photoluminescence quantum yield (in ClCCl) of 0.24.

Turning to `CC[N+]1(CC)CN2C(=N1)C(C(=O)O)=Cc1cc(OC)c(OC)cc12`, the photoluminescence quantum yield (in O) came to 0.859.

In turn, `N#Cc1ccc(/C=C/c2ncc(-c3ccccc3)o2)cc1` had a photoluminescence quantum yield (in ClCCl) of 0.65.

Under “in O=P(c1ccccc1)(c1ccccc1)c1ccccc1Oc1ccccc1P(=O)(c1ccccc1)c1ccccc1”, `CC(C)(C)c1ccc2c(c1)c1cc(C(C)(C)C)ccc1n2-c1ccccc1-c1nc(-c2ccccc2-n2c3ccc(C(C)(C)C)cc3c3cc(C(C)(C)C)ccc32)nc(-c2ccccc2P(=O)(c2ccccc2)c2ccccc2)n1` returned a photoluminescence quantum yield of 0.45.

`CC(C)(C)c1ccc2oc3nc4oc5cc(-n6c7ccccc7c7ccccc76)ccc5c4cc3c2c1` registered a photoluminescence quantum yield (in ClC(Cl)Cl) of 0.714.

For the setting “in ClCCl”, `Cc1ccc(-c2cccc3ncc(-c4ccccc4)n23)cc1` displayed a photoluminescence quantum yield of 0.28.

In the case of `Cc1ccc(/C=C/c2ccccc2-[n+]2noc([O-])c2C)cc1`, the photoluminescence quantum yield was determined as 0.0019 (in C1CCCCC1) and 0.0019 (in CC#N).

On to `CCN(CC)c1ccc2cc(/C=C/C(=O)/C=C(O)/C=C/c3cc4ccc(N(CC)CC)cc4oc3=O)c(=O)oc2c1`, for which the photoluminescence quantum yield was found to be 0.62 (in C1CCOC1); 0.66 (in C1COCCO1); 0.06 (in CC#N); 0.2 (in CC(C)=O); 0.56 (in CCOC(C)=O); 0.05 (in CS(C)=O). The photoluminescence quantum yield reads like this: (in Cc1ccccc1) 0.76; (in ClC(Cl)Cl) 0.45; (in ClCCl) 0.44.

With `CN(c1ccccc1)c1ccc(N(c2ccccc2)c2ccc3ccc4c(N(c5ccccc5)c5ccc(N(C)c6ccccc6)cc5)ccc5ccc2c3c54)cc1`, the photoluminescence quantum yield (in ClCCl) came to 0.01.

As to `CCCCn1c(-c2ccc(-c3nnc(-c4ccc5ccccc5c4)o3)cc2)nc2c3ccccc3c3ccccc3c21`, the photoluminescence quantum yield (in ClCCl) turned out to be 0.75.

Turning to `CN1C(=O)/C(=C/c2ccncc2)N=C1c1ccccc1`, the photoluminescence quantum yield stood at 0.466 (in C1COCCO1); 0.048 (in CC#N); 0.073 (in CCO); 0.186 (in CCOC(C)=O); 0.0069 (in O).

`CN(C)c1cc(-c2ccc(C#Cc3ccncc3)cc2)cc2ccccc12`: the photoluminescence quantum yield (in ClCCl) worked out at 0.83.
